The target in one experiment is WT EZH2 (Homo sapiens (Human), UniProt Q15910). In words: WT EZH2 nucleosome assay (10X SAM, high SAM conditions). Format: biochemical. As to conditions: 15 uM SAM, Ki app from competitive inhibition fit.
Another experiment concerns the target EZH2 Mutant Y641N (Homo sapiens (Human), UniProt Q15910, Y641N). As to the kind of experiment: EZH2 Mutant Y641N nucleosome assay. In kind it is biochemical. As to conditions: PRC2 4-protein complex 6 nM, 1.5 μM SAM, HeLa oligonucleosomes.
[1] abbreviates: read-out: WT EZH2 Nucleosome assay (10X SAM) Ki.
Setting [2] is: read-out: EZH2 Mutant Y641N Nucleosome assay IC50.
[3] abbreviates: WT EZH2 Nucleosome assay (10X SAM) Ki (μM).
Where [4] appears, read: EZH2 Mutant Y641N Nucleosome assay IC50 (μM).

Each structure is given as a SMILES string. Like-named read-outs stand apart in the source and are kept apart here.

Sequence of EZH2 Mutant Y641N (Q15910 whole entry Y641N, looked up): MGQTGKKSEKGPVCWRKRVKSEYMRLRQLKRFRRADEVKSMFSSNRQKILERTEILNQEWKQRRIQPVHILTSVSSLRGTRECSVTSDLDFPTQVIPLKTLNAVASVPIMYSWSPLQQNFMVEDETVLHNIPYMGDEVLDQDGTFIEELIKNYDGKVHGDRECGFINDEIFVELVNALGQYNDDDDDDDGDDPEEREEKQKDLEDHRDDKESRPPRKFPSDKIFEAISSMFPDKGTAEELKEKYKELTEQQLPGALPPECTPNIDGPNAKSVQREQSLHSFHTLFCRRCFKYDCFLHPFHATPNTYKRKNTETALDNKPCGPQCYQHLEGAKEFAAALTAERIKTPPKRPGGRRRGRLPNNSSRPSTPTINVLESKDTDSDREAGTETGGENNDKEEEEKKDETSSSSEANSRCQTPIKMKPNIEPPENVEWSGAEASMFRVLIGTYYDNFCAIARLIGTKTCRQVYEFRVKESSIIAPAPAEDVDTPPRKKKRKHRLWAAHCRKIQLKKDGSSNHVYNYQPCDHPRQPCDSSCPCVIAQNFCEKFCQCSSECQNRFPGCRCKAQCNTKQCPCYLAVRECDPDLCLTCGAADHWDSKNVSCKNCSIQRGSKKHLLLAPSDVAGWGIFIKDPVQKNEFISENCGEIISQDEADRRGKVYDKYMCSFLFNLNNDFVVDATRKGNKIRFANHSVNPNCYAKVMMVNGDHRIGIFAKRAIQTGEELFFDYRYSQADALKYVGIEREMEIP
Sequence of EZH2 Mutant Y641N (O75530 whole entry partner, looked up): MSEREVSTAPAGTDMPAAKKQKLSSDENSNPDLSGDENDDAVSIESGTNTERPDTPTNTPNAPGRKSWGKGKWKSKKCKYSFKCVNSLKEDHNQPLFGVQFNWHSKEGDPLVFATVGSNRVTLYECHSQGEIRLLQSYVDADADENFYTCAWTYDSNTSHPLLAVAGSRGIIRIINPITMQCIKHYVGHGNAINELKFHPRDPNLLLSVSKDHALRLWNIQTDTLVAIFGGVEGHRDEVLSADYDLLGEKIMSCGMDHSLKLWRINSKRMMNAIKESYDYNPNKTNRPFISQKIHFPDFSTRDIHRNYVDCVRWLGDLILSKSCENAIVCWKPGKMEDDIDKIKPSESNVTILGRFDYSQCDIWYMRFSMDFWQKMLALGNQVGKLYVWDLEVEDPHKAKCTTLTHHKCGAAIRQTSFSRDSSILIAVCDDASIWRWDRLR
Sequence of EZH2 Mutant Y641N (Q15022 whole entry partner, looked up): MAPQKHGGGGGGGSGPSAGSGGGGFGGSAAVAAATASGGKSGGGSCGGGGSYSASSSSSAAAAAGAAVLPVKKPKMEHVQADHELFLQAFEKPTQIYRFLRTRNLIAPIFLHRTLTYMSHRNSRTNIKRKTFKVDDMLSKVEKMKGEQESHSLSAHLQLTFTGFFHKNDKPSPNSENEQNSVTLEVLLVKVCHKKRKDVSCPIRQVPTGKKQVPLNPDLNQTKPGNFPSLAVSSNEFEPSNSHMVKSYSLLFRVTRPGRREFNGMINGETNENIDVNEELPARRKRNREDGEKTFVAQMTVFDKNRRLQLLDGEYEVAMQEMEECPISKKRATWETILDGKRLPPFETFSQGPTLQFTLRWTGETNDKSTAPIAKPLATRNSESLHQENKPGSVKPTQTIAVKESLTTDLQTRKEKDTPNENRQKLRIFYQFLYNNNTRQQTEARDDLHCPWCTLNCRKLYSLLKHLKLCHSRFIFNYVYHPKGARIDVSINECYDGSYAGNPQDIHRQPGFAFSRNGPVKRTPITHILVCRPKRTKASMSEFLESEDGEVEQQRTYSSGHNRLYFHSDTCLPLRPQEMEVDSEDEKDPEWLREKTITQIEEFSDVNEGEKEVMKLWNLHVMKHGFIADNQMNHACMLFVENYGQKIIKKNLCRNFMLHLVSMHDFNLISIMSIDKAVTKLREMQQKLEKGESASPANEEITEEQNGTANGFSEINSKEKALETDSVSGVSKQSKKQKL
Sequence of EZH2 Mutant Y641N (Q09028 whole entry partner, looked up): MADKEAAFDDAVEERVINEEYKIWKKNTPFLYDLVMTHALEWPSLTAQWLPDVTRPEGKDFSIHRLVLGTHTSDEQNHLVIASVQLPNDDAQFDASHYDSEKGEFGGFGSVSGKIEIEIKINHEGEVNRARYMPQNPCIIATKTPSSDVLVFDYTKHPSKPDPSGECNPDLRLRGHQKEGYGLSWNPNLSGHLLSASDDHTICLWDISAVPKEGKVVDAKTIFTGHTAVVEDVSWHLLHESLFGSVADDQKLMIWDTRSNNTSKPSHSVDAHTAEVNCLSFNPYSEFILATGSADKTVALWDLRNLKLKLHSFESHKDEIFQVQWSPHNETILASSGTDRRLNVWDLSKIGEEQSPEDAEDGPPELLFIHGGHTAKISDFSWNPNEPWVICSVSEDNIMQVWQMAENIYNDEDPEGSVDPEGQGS
Sequence of WT EZH2 (Q15910 whole entry, looked up): as the sequence (Q15910 whole entry Y641N, looked up) above, with N641Y counted along it
Sequence of WT EZH2 (O75530 whole entry partner, looked up): as the sequence (O75530 whole entry partner, looked up) above
Sequence of WT EZH2 (Q15022 whole entry partner, looked up): as the sequence (Q15022 whole entry partner, looked up) above
Sequence of WT EZH2 (Q09028 whole entry partner, looked up): as the sequence (Q09028 whole entry partner, looked up) above

As to `COC(c1cc(Cl)c2c(c1Cl)C(=O)N(Cc1c(C)cc(C)[nH]c1=O)CC2)[C@H](C)CO` (single isomer, unassigned) [Example 141], the Ki at WT EZH2 (setting [1]) is 0.002 µM. On EZH2 Mutant Y641N (setting [2]), the IC50 was 0.016 µM.
On the same counts, the results for `COc1cc(C)[nH]c(=O)c1CN1CCc2c(Cl)cc([C@H](OC)C3COC3)c(Cl)c2C1=O` [Example 81, 5,8-dichloro-2-[(4-methoxy-6-methyl-2-oxo-1,2-dihydropyridin-3-yl)methyl]-7-[(R)-methoxy(oxetan-3-yl)methyl]-3,4-dihydroisoquinolin-1(2H)-one] are 0.0002 µM and 0.003 µM.
For `COC(c1cc(C)c2c(c1Cl)C(=O)N(Cc1c(C)cc(C)[nH]c1=O)CC2)C1CNC1` (racemic) [Example 178], in that order: 0.003 µM and 0.02 µM.
On to `COC(c1cc(Cl)c2c(c1Cl)C(=O)N(Cc1c(C)cc(C)[nH]c1=O)CC2)C1CN(C)C1` (single isomer, unassigned) [Example 175], for which the Ki on WT EZH2 (setting [1]) is 0.085 µM. In addition, on EZH2 Mutant Y641N (setting [2]), the IC50 is 1 µM.
For `Cc1cc(C)c(CN2CCc3c(Cl)cc([C@H](CO)[C@H]4CCCO4)c(Cl)c3C2=O)c(=O)[nH]1` [Example 13, 5,8-dichloro-2-[(4,6-dimethyl-2-oxo-1,2-dihydropyridin-3-yl)methyl]-7-{(1R)-2-hydroxy-1-[(2R)-tetrahydrofuran-2-yl]ethyl}-3,4-dihydroisoquinolin-1(2H)-one], in that order: 0.003 µM and 0.018 µM.
On the same counts, the results for `Cc1cc(C)c(CN2CCc3c(Cl)cc(C(F)C4CCN(C(=O)CO)CC4)c(Cl)c3C2=O)c(=O)[nH]1` (single isomer, unassigned; (+)) [Example 8, (+)-5,8-dichloro-2-[(4,6-dimethyl-2-oxo-1,2-dihydropyridin-3-yl)methyl]-7-{fluoro[1-(hydroxyacetyl)piperidin-4-yl]methyl}-3,4-dihydroisoquinolin-1(2H)-one] are 0.652 µM and 5.02 µM.
For `COc1cc(C)[nH]c(=O)c1CN1CCc2c(Cl)cc([C@H](CO)[C@@H]3CCCO3)c(Cl)c2C1=O` [Example 106], in that order: 0.0006 µM and 0.008 µM.
Consider `COC(c1cc(C)c2c(c1Cl)C(=O)N(Cc1c(C)cc(C)[nH]c1=O)CC2)C1CCN(C(=O)CO)CC1` (single isomer, unassigned) [Example 168], for which, at WT EZH2 (setting [1]), the Ki came out at 0.0007 µM. Moreover, the IC50 on EZH2 Mutant Y641N (setting [2]) was 0.008 µM.
`COc1cc(C)[nH]c(=O)c1CN1CCc2c(Cl)cc(C(OC)C3CCOC3)c(Cl)c2C1=O` (single isomer, unassigned) [Example 125]: the Ki on WT EZH2 (setting [3]) is 0.0009 µM. Further, 0.008 µM corresponded to half-maximal inhibition against EZH2 Mutant Y641N (setting [4]) (IC50).
On to `COC(c1cc(Cl)c2c(c1Cl)C(=O)N(Cc1c(C)cc(C)[nH]c1=O)CC2)C1CCN(C(=O)CO)C1` (stereo not drawn) [Example 113], for which, at WT EZH2 (setting [1]), the Ki stood at 0.0008 µM. Moreover, the IC50 at EZH2 Mutant Y641N (setting [2]) was 0.005 µM.
For the molecule `Cc1cc(C)c(CN2CCc3c(Cl)cc(C(CO)N4CCC(F)(F)C4)c(Cl)c3C2=O)c(=O)[nH]1` (racemic) [Example 59], at WT EZH2 (setting [1]), the Ki stood at 0.025 µM. Further, the IC50 on EZH2 Mutant Y641N (setting [2]) turned out to be 0.155 µM.
On the same counts, the results for `COC(c1cc(Cl)c2c(c1Cl)C(=O)N(Cc1c(C)cc(C)[nH]c1=O)CC2)C1CC(=O)N(C)C1` (single isomer, unassigned) [Example 179] are 0.001 µM and 0.009 µM.
Turning to `Cc1cc(C)c(CN2CCc3c(Cl)cc([C@@H](CO)[C@H]4CCCO4)c(Cl)c3C2=O)c(=O)[nH]1` [Example 45], the Ki on WT EZH2 (setting [1]) amounted to 0.103 µM. The IC50 on EZH2 Mutant Y641N (setting [2]) was determined as 0.345 µM.
For `COC(c1cc(C)c2c(c1Cl)C(=O)N(Cc1c(C)cc(C)[nH]c1=O)CC2)C1CN(C2COC2)C1` (single isomer, unassigned) [Example 182], in that order: 2.23 µM and 9.15 µM.
For `COC(c1cc(Cl)c2c(c1Cl)C(=O)N(Cc1c(C)cc(C)[nH]c1=O)CC2)C1CCN(C=O)CC1` (single isomer, unassigned) [Example 72], in that order: 0.041 µM and 0.128 µM.
For `COC(c1cc(Cl)c2c(c1Cl)C(=O)N(Cc1c(C)cc(C)[nH]c1=O)CC2)C1CN(S(C)(=O)=O)C1` (single isomer, unassigned) [Example 176], in that order: 0.0003 µM and 0.005 µM.
Consider `COC(c1cc(Cl)c2c(c1Cl)C(=O)N(Cc1c(C)cc(C)[nH]c1=O)CC2)C1(F)CCN(C)CC1` (single isomer, unassigned) [Example 120], for which the Ki at WT EZH2 (setting [1]) stood at 0.002 µM. Also, on EZH2 Mutant Y641N (setting [2]), the IC50 was 0.014 µM.
For `COc1cc(C)[nH]c(=O)c1CN1CCc2c(Cl)cc([C@H](CO)[C@H]3CCCO3)c(Cl)c2C1=O` [Example 105], in that order: 0.0008 µM and 0.013 µM.
As for `Cc1cc(C)c(CN2CCc3c(C)cc(C(C)C4COC4)c(Cl)c3C2=O)c(=O)[nH]1` (single isomer, unassigned) [Example 195], the Ki at WT EZH2 (setting [1]) turned out to be 0.046 µM. In addition, on EZH2 Mutant Y641N (setting [2]), the IC50 stood at 0.216 µM.
For `Cc1cc(C)c(CN2CCc3c(Cl)cc(C(CO)N4CCOCC4)c(Cl)c3C2=O)c(=O)[nH]1` (single isomer, unassigned) [Example 68], in that order: 0.007 µM and 0.074 µM.
For `Cc1cc(C)c(CN2CCc3c(Cl)cc(C(C)C4CNC4)c(Cl)c3C2=O)c(=O)[nH]1` (single isomer, unassigned) [Example 190], in that order: 0.016 µM and 0.1 µM.
For `COc1cc(C)[nH]c(=O)c1CN1CCc2c(C)cc(C(OC)C3COC3)c(Cl)c2C1=O` (single isomer, unassigned) [Example 145], in that order: 0.07 µM and 0.272 µM.
With `COC(c1ccc2c(c1Cl)C(=O)N(Cc1c(C)cc(C)[nH]c1=O)CC2)C1CCOC1` (single isomer, unassigned) [Example 135], at WT EZH2 (setting [1]), the Ki came out at 0.002 µM. Moreover, on EZH2 Mutant Y641N (setting [2]), the half-maximal inhibitory concentration (IC50) worked out at 0.014 µM.
On the same counts, the results for `CC(=C1CN(S(C)(=O)=O)C1)c1cc(C)c2c(c1Cl)C(=O)N(Cc1c(C)cc(C)[nH]c1=O)CC2` [Example 77] are 0.022 µM and 0.132 µM.
Take `Cc1cc(C)c(CN2CCc3c(Cl)cc(C(C)C4CN(S(C)(=O)=O)C4)c(Cl)c3C2=O)c(=O)[nH]1` (single isomer, unassigned) [Example 186]: the Ki at WT EZH2 (setting [1]) worked out at 0.014 µM. For the same molecule, on EZH2 Mutant Y641N (setting [2]), the IC50 was determined as 0.24 µM.
In the case of `COC(c1cc(Cl)c2c(c1Cl)C(=O)N(Cc1c(C)cc(C)[nH]c1=O)CC2)C1CN(S(C)(=O)=O)C1` (single isomer, unassigned) [Example 177], the Ki at WT EZH2 (setting [1]) worked out at 0.049 µM. The IC50 on EZH2 Mutant Y641N (setting [2]) turned out to be 0.282 µM.
For `COC(c1cc(Cl)c2c(c1Cl)C(=O)N(Cc1c(C)cc(C)[nH]c1=O)CC2)C1CCOCC1` (single isomer, unassigned) [Example 50], in that order: 0.077 µM and 0.129 µM.
Take `COC(c1cc(Cl)c2c(c1Cl)C(=O)N(Cc1c(C)cc(C)[nH]c1=O)CC2)C1CCN(C)CC1` (single isomer, unassigned) [Example 137]: the Ki on WT EZH2 (setting [3]) was 0.133 µM. On EZH2 Mutant Y641N (setting [4]), this molecule gave a 50% inhibitory concentration (IC50) of 1.17 µM.
As for `COC(c1cc(Cl)c2c(c1Cl)C(=O)N(Cc1c(C)cc(C)[nH]c1=O)CC2)[C@@H](C)CO` (single isomer, unassigned) [Example 143], on WT EZH2 (setting [1]), the Ki was determined as 0.276 µM. In addition, the IC50 at EZH2 Mutant Y641N (setting [2]) amounted to 1.77 µM.
For `Cc1cc(C)c(CN2CCc3ccc(C(CO)C4CCOC4)c(Cl)c3C2=O)c(=O)[nH]1` (single isomer, unassigned) [Example 97], in that order: 0.003 µM and 0.027 µM.

As usually defined, the IC50 is the concentration needed to halve the response being measured.
